Source: ChEMBL document CHEMBL1142592, “Additional pyrrolomycins from cultures of Streptomyces fumanus” (2005)
Values after ≈ are worked out from the molar mass of the structure shown.

Experiments:
Type in all cases: functional
[1] = tested on: Escherichia coli; experiment: Antimicrobial activity against permeability mutant Escherichia coli imp by agar dilution method
[2] = tested on: Staphylococcus aureus; experiment: Antimicrobial activity against wild type Staphylococcus aureus by agar dilution method
[3] = tested on: Enterococcus faecium; experiment: Antimicrobial activity against vancomycin-resistant Enterococcus faecium by agar dilution method
[4] = tested on: Staphylococcus aureus; experiment: Antimicrobial activity against methicillin-resistant Staphylococcus aureus by agar dilution method
[5] = tested on: Escherichia coli; experiment: Antimicrobial activity against wild type Escherichia coli by agar dilution method

Structure (SMILES)	MIC [1] [µg/mL]	MIC [2] [µg/mL]	MIC [3] [µg/mL]	MIC [4] [µg/mL]	MIC [5] [µg/mL]
O=[N+]([O-])c1c([C@@H](O)c2cc(Cl)cc(Cl)c2O)[nH]c(Cl)c1Cl [PYRROLOMYCIN G]	32 (≈ 86 µM)	8 (≈ 21.5 µM)	8 (≈ 21.5 µM)	8 (≈ 21.5 µM)	> 128
COc1c(Cl)cc(Cl)cc1[C@H](O)c1[nH]c(Cl)c(Cl)c1[N+](=O)[O-] [PYRROLOMYCIN H]	4 (≈ 10.4 µM)	1 (≈ 2.59 µM)		2 (≈ 5.18 µM)	128 (≈ 332 µM)
COc1c(Cl)cc(Cl)cc1C(=O)c1[nH]c(Cl)c(Cl)c1Cl [PYRROLOMYCIN J]	8 (≈ 21.4 µM)	1 (≈ 2.68 µM)		2 (≈ 5.36 µM)	> 128
